Test results as given in ChEMBL document CHEMBL1201862, “PubChem BioAssay data set” (2004).
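96-well plates; 48 h exposure; 5 concentrations. Endpoints by linear interpolation between flanking doses. Not reached: highest tested concentration assigned. The concentration for 50% growth inhibition is given as GI50.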 Activity calls are given as the source filed them. Rule as the data show it: active = GI50 up to about 1.1 µM and inactive = higher.

Tests used:
Experiment in all cases: NCI anticancer screen, dose series, 48 h
HCT-15 = tested on: HCT-15
M14 = tested on: M14
SK-OV-3 = tested on: SK-OV-3
SF-539 = tested on: SF-539
HCT-116 = tested on: HCT-116
UACC-257 = tested on: UACC-257
SNB-75 = tested on: SNB-75
ACHN = tested on: ACHN
COLO 205 = tested on: COLO 205
CCRF-CEM = tested on: CCRF-CEM
SW-620 = tested on: SW-620
UO-31 = tested on: UO-31
786-0 = tested on: 786-0
A498 = tested on: A498
KM12 = tested on: KM12
SR = tested on: SR
MDA-MB-435 = tested on: MDA-MB-435
A549 = tested on: A549
TK-10 = tested on: TK-10
NCI-H23 = tested on: NCI-H23

SMILES | GI50 (HCT-15) [µM] | GI50 (M14) | GI50 (SK-OV-3) | GI50 (SF-539) | GI50 (HCT-116) | GI50 (UACC-257) | GI50 (SNB-75) | GI50 (ACHN) | GI50 (COLO 205) | GI50 (CCRF-CEM) | GI50 (SW-620) | GI50 (UO-31) | GI50 (786-0) | GI50 (A498) | GI50 (KM12) | GI50 (SR) | GI50 (MDA-MB-435) | GI50 (A549) | GI50 (TK-10) | GI50 (NCI-H23)
CC(C)C(C/C=C1/CC(CO)(COC(=O)C(C)(C)C)OC1=O)C(C)C (stereo not given) | 16.9 | 11.7 µM (inactive) | 16.7 µM (inactive) | 0.598 µM (active) | 14.3 µM (inactive) | 16.8 µM (inactive) | 5.45 µM (inactive) | 5.9 µM (inactive) | 0.0678 µM (active) | 12.1 µM (inactive) | 3.31 µM (inactive) | 4.07 µM (inactive) | 3.23 µM (inactive) | 7.67 µM (inactive) | 13.8 µM (inactive) | 14.9 µM (inactive) | 8.59 µM (inactive) | 1.09 µM (active) | 3.72 µM (inactive) | 9.51 µM (inactive)
CCN(CC)C1Oc2cc3c(cc2C(c2cccc(OC)c2O)C1C)OCO3 (stereo not given) | 4.79 | 2.98 µM (inactive) | 4.99 µM (inactive) | 2.54 µM (inactive) | 4.28 µM (inactive) | 7.6 µM (inactive) | 2.81 µM (inactive) | 6.25 µM (inactive) | 3.03 µM (inactive) | 3.94 µM (inactive) | 4.33 µM (inactive) | 9.38 µM (inactive) | 9.79 µM (inactive) | 2.36 µM (inactive) | 4.1 µM (inactive) | 4.75 µM (inactive) | 1.74 µM (inactive) | 5.02 µM (inactive) | 16.4 µM (inactive) | 5.79 µM (inactive)
Cc1cc2nc(CC(C(F)(F)F)C(F)(F)F)oc2cc1C | 3.47 | 1.07 µM (active) | 14.1 µM (inactive) | 2.73 µM (inactive) | 1 µM (active) | 4.46 µM (inactive) | 1.61 µM (inactive) | 7.26 µM (inactive) | 1.54 µM (inactive) | 0.016 µM (active) | 0.608 µM (active) | 7.69 µM (inactive) | 0.474 µM (active) | 5.71 µM (inactive) | 3 µM (inactive) | 0.0276 µM (active) | 1.96 µM (inactive) | 5.79 µM (inactive) | 5.21 µM (inactive) | 1.37 µM (inactive)
CC(=O)Nc1ccc(Nc2nc(=O)[nH]c(=O)[nH]2)cc1 | > 100 | > 100 µM (inactive) | > 100 µM (inactive) | > 100 µM (inactive) | > 100 µM (inactive) | > 100 µM (inactive) | > 100 µM (inactive) | > 100 µM (inactive) | > 100 µM (inactive) | > 100 µM (inactive) | > 100 µM (inactive) | 28.6 µM (inactive) | > 100 µM (inactive) | > 100 µM (inactive) | > 100 µM (inactive) | > 100 µM (inactive) | > 100 µM (inactive) | > 100 µM (inactive) | > 100 µM (inactive) | > 100 µM (inactive)
Nc1ccc(/C=C/c2ccc3cccnc3c2)cc1 | > 100 | > 100 µM (inactive) | > 100 µM (inactive) | > 100 µM (inactive) | > 100 µM (inactive) | > 100 µM (inactive) | > 100 µM (inactive) | 52.5 µM (inactive) | > 100 µM (inactive) | > 100 µM (inactive) | > 100 µM (inactive) | > 100 µM (inactive) | > 100 µM (inactive) | > 100 µM (inactive) | > 100 µM (inactive) | > 100 µM (inactive) | > 100 µM (inactive) | > 100 µM (inactive) | > 100 µM (inactive) | > 100 µM (inactive)
C#CCn1c(I)cc2c(c1=O)COC(=O)[C@]2(O)CC | > 100 | > 100 µM (inactive) | > 100 µM (inactive) | > 100 µM (inactive) | > 100 µM (inactive) | > 100 µM (inactive) | > 100 µM (inactive) | > 100 µM (inactive) | > 100 µM (inactive) | > 100 µM (inactive) | > 100 µM (inactive) | > 100 µM (inactive) | > 100 µM (inactive) | > 100 µM (inactive) | > 100 µM (inactive) | > 100 µM (inactive) | > 100 µM (inactive) | > 100 µM (inactive) | > 100 µM (inactive) | > 100 µM (inactive)
O=C1CC(=O)NC(NN2C(=O)/C(=C/C(=O)c3ccco3)N=C2c2ccccc2)=N1 | > 100 | 92.3 µM (inactive) | > 100 µM (inactive) | 44.1 µM (inactive) | > 100 µM (inactive) | 92.3 µM (inactive) | 22.2 µM (inactive) | > 100 µM (inactive) | > 100 µM (inactive) | 20.6 µM (inactive) | 73.6 µM (inactive) | 57.8 µM (inactive) | > 100 µM (inactive) | > 100 µM (inactive) | 30.5 µM (inactive) | 14.6 µM (inactive) | 63.7 µM (inactive) | > 100 µM (inactive) | > 100 µM (inactive) | > 100 µM (inactive)
Cc1cc(S(=O)(=O)n2ccnc2Oc2cccc(Cl)c2)c(SSc2cc(Cl)c(C)cc2S(=O)(=O)n2ccnc2Oc2cccc(Cl)c2)cc1Cl | 8.67 | 7.89 µM (inactive) | 12.4 µM (inactive) | 4.54 µM (inactive) | 6.19 µM (inactive) | 8.09 µM (inactive) | 7.59 µM (inactive) | 8.36 µM (inactive) | 2.57 µM (inactive) | 2.81 µM (inactive) | 11.7 µM (inactive) | 5.96 µM (inactive) | 6.79 µM (inactive) | 12.2 µM (inactive) | 5.66 µM (inactive) | 9.06 µM (inactive) | 5.65 µM (inactive) | 7.06 µM (inactive) | 29 µM (inactive) | 6.32 µM (inactive)
O=C1N[C@@H]2c3c(csc3Br)C(=O)[C@@H]2O1 | 31.5 | 37.3 µM (inactive) | 90.4 µM (inactive) | 33.5 µM (inactive) | 27.8 µM (inactive) | 22.4 µM (inactive) | 48.4 µM (inactive) | 37.2 µM (inactive) | 35 µM (inactive) | 15 µM (inactive) | 20.2 µM (inactive) | 20.9 µM (inactive) | 33.2 µM (inactive) | > 100 µM (inactive) | 47 µM (inactive) | 26.1 µM (inactive) | 19.9 µM (inactive) | 51.9 µM (inactive) | 27.4 µM (inactive) | 41.7 µM (inactive)
CC1=CC[C@@]2(C)CC[C@](O)(C(C)C)C2C(OC(=O)c2ccccc2)C1 (stereo not given in full) | 18.7 | 18.7 µM (inactive) | 14.3 µM (inactive) | 19.8 µM (inactive) | 17.3 µM (inactive) | 18.9 µM (inactive) | 17.5 µM (inactive) | 17.8 µM (inactive) | 22.1 µM (inactive) | 23 µM (inactive) | 22.3 µM (inactive) | 17.3 µM (inactive) | 18.5 µM (inactive) | 24.4 µM (inactive) | 18.4 µM (inactive) | 31.7 µM (inactive) | 36.1 µM (inactive) | 15.6 µM (inactive) | 18.3 µM (inactive) | 18.5 µM (inactive)
CC(C)(C)c1ccc(OCCOc2ccc(C(C)(C)C)cc2N)c(N)c1 | 37.5 | > 100 µM (inactive) | > 100 µM (inactive) | > 100 µM (inactive) | > 100 µM (inactive) | > 100 µM (inactive) | 47.8 µM (inactive) | 60.1 µM (inactive) | > 100 µM (inactive) | 22.9 µM (inactive) | > 100 µM (inactive) | > 100 µM (inactive) | 29.9 µM (inactive) | 18.3 µM (inactive) | > 100 µM (inactive) | > 100 µM (inactive) | > 100 µM (inactive) | 26.2 µM (inactive) | 69.3 µM (inactive) | 27.6 µM (inactive)
CCOC(=O)c1c(Nc2ccccc2)sc2cccnc12 | 21.7 | 4.49 µM (inactive) | 36 µM (inactive) | 1.43 µM (inactive) | 5.92 µM (inactive) | 5.35 µM (inactive) | 19.9 µM (inactive) | 14.2 µM (inactive) | 0.853 µM (active) | 10.5 µM (inactive) | 24 µM (inactive) | 1.94 µM (inactive) | 11.6 µM (inactive) | 3.56 µM (inactive) | 18.9 µM (inactive) | 9.44 µM (inactive) | 22.6 µM (inactive) | 3.24 µM (inactive) | 11.2 µM (inactive) | 30.3 µM (inactive)
